Results as given in patent publication EP4800008A1, “PYRAZOLE DERIVATIVE, OR ACCEPTABLE SALT THEREOF OR N-OXIDE THEREOF, AGRICULTURAL AND HORTICULTURAL CHEMICAL, AND INDUSTRIAL MATERIAL PROTECTANT” (Kureha Corporation, priority 2023, dated 2025).

Legend:
Zymoseptoria tritici = test: Wheat leaf blight control efficacy test; assay type: in vivo; details: 12.5 ppm, as Test Example 4
Botrytis cinerea = test: Cucumber gray mold control efficacy test; assay type: in vivo; details: as Test Example 2

Row | Structure (SMILES) | control efficacy (Zymoseptoria tritici) [%] | control efficacy (Botrytis cinerea; 12.5 ppm) [%] | control efficacy (Botrytis cinerea; 100 ppm) [%]
1 | CON(C(=O)c1cn(C)nc1C(F)F)C(C)Cc1ccc(C#CCOCc2ccccc2)cc1Cl (stereo not drawn) [Compound I-18] | 100 |  | 
2 | CON(C(=O)c1cn(C)nc1C(F)F)C(C)Cc1c(Cl)cc(Cl)cc1Cl (stereo not drawn) [Control compound C] |  | 65 | 97
